Source: PubChem BioAssay (NCI)
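Test compounds were applied to cells in 96-well plates for 48 hours at 5 doses. Definition used: TGI = concentration required for complete inhibition of growth.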 Where a SMILES comes first, the peptide text is derived from it. [ ]: non-standard residue; d: D form. Phe(4-NO2) = N[CH](Cc1ccc([N+](=O)[O-])cc1)C(=O)O

Columns and labels:
Test in all cases: NCI-60 cell line screen, 48 h
OVCAR-5 ovarian = tested on: OVCAR-5 ovarian
MDA-N = tested on: MDA-N
786-0 renal = tested on: 786-0 renal
HOP-18 NSCLC = tested on: HOP-18 NSCLC
DMS 273 small cell lung = tested on: DMS 273 small cell lung
M19-MEL melanoma = tested on: M19-MEL melanoma
XF 498 CNS = tested on: XF 498 CNS
KM20L2 colon = tested on: KM20L2 colon
SNB-78 CNS = tested on: SNB-78 CNS
DLD-1 colon = tested on: DLD-1 colon
LXFL 529 NSCLC = tested on: LXFL 529 NSCLC
DMS 114 small cell lung = tested on: DMS 114 small cell lung

Compound	TGI (OVCAR-5 ovarian) [µM]	TGI (MDA-N) [µM]	TGI (786-0 renal) [µM]	also measured
Cc1c2c(OCC(O)CN3CCN(c4ccccc4)CC3)nn(C)c(=O)c2c(C)n1-c1ccccc1 (centres undefined)	62	35.4	42.3	
CCSc1cc2c(cc1O)CC[C@@H]1[C@@H]2CC[C@]2(C)[C@@H](O)CC[C@@H]12	51.2	7.66	24.5	
O=C(CCCN1CCC2(CC1)CC(=O)N(N1CCOCC1)C2=O)c1ccc(F)cc1	> 100	> 100	> 100	
O[C@H]1[C@H](O)[C@@H](O)[C@@]2(O)CC[C@@H]1N2	> 100	> 100	> 100	
O=C(O)c1cc2c(cc1CC(Cc1ccc3c(c1)CCCC3)C(=O)O)CCCC2 (centres undefined)	> 100	> 100	> 100	
CCC1CCN=C(NS(=O)(=O)c2cc(C)c(Cl)cc2S)N1 (centres undefined)	49.9	> 100	97.9	
CCOC(=O)C(C(=O)OCC)c1ccc([N+](=O)[O-])o1	32.1		13.4	TGI (HOP-18 NSCLC): 34.2 µM; TGI (DMS 273 small cell lung): 33.4 µM; TGI (M19-MEL melanoma): 33.2 µM; TGI (XF 498 CNS): 31 µM; TGI (KM20L2 colon): 36.8 µM; TGI (SNB-78 CNS): 34.8 µM; TGI (DLD-1 colon): 18.6 µM; TGI (LXFL 529 NSCLC): 11.2 µM
CC1=NC2c3c(-c4ccc(Cl)cc4)cn(-c4ccc(C)cc4)c3N=CN2N1 (centres undefined)	> 100	> 100	> 100	
O=C(O)c1cc(=O)c2c(OCC(O)COc3cccc4oc(C(=O)O)cc(=O)c34)cccc2o1	> 100	> 100	> 100	
O=C(/C=C/c1ccc(C(F)(F)F)cc1)c1c([O-])on[n+]1-c1ccccc1	8.06	8.69	1.71	
COc1cc2c(cc1OCCCOS(C)(=O)=O)N=C[C@@H]1CCCN1C2=O			> 100	
O=c1/c(=C/c2ccc([N+](=O)[O-])o2)sc2n1[C@@H](c1ccc(Cl)cc1)C=C(c1cc(F)c(Cl)cc1Cl)N=2	30.6	23.3	20.7	
CCOC(=O)C1C(C)C2(C#N)C(=N)OC1(C)C2(C#N)C#N (centres undefined)	> 100	> 100	> 100	
CC(C)CC(=O)NC(C(=O)NC(C(=O)NC(CC(C)C)C(O)CC(=O)NC(C)C(=O)NC(CC(C)C)C(O)CC(=O)O)C(C)C)C(C)C (centres undefined)	> 100	> 100	> 100	
CC(NC(=O)C(Cc1ccc([N+](=O)[O-])cc1)NC(=O)C(N)CCCCN)C(=O)NC(Cc1ccc([N+](=O)[O-])cc1)C(N)=O (centres undefined) (H-K[Phe(4-NO2)]A[Phe(4-NO2)]-NH2; configuration not given here)	> 100		> 100	
Cc1ccc(C(=O)Cn2c(C(=O)/C=C/c3cccs3)nc3ccccc32)cc1	> 100	> 100	> 100	
COc1ccc(OC)c(C2CCc3c(cnc4nc(N)nc(N)c34)C2)c1 (centres undefined)	22.2	17.2	18.3	
CN(C)CCCNC(=O)CCNC(=O)c1cc(NC(=O)c2cc(NC(=O)c3cc(NC(=O)c4nccn4C)cn3C)cn2C)cn1C	> 100	> 100	> 100	

Compound	TGI (OVCAR-5 ovarian) [µM]	TGI (MDA-N) [µM]	TGI (786-0 renal) [µM]	also measured
NC(=O)c1ncn(C2OC(CO)C(O)C2O)c1NC=O (centres undefined)	> 100	> 100	> 100	
C=CCN1COc2c(cc3c4c(cccc24)C(=O)O3)C1	> 100		39.1	TGI (HOP-18 NSCLC): > 100 µM; TGI (DMS 273 small cell lung): > 100 µM; TGI (M19-MEL melanoma): 37.4 µM; TGI (DMS 114 small cell lung): 35 µM; TGI (XF 498 CNS): 37.8 µM; TGI (KM20L2 colon): > 100 µM; TGI (DLD-1 colon): 66.2 µM; TGI (LXFL 529 NSCLC): 35.1 µM
CN(C)CCNC(=O)c1cccc2c(NC(CS)C(=O)O)c3ccccc3[n+](C)c12 (centres undefined)	> 100		> 100	
CC1(C)CC(=O)C2=C(C1)NC1=C(C2)C(=O)CC(C)(C)C1	> 100	> 100	> 100	
Clc1ccc(C(Cc2cccc(Cl)c2)c2c(Cl)nc(N3CCNCC3)nc2Cl)cc1 (centres undefined)	25	29.6	27.5	
CNC(=O)NCCN1CC2CCC(CC2)C1		> 10	> 10	
Cc1cc(C)c(O)c(CN2CCN(C(C)C)CCN(C(C)C)CC2)c1	> 100	68.3	> 100	
Cc1ccc(N=NC(=Nc2ccc(Cl)cc2)c2ccc(N(CCC#N)CCC#N)cc2)cc1	> 100	> 100	> 100	
C=CCN1C[C@H](C)N([C@@H](c2ccc(C(=O)N3CCCCC3)cc2)c2cccc(OC)c2)C[C@H]1C	> 100	> 100	> 100	
CCOC(=O)Cn1c(=O)c2nc(SC)sc2n(-c2ccccc2)c1=S	> 100	> 100	30.9	
O=C(SC1=NCCN1)c1cccc2ccccc12	> 100	> 100	> 100	
COc1cc(/C=N\c2nc(-c3ccc(NS(=O)(=O)c4ccc(Cl)c(OC)c4)cc3)cs2)ccc1O	> 100	> 100	> 100	
C=C1CCCC(C)(C)C1CCC1(C)CCC(C(C)C(=O)OC)OO1 (centres undefined)	> 23.1	7.39	0.76	
Nc1ccc(Oc2ccc(C3(c4ccc(Oc5ccc(N)cc5)cc4)C4CC5CC(C4)CC3C5)cc2)cc1	> 100	40.4	19.1	
CC(=O)Oc1ccc2cc(Oc3ccc(Cl)c(Cl)c3)c(=O)oc2c1	> 100	56.6	52.4	
C[Si](C)(N[Si](C)(C)OCCc1ccccc1)OCCc1ccccc1	> 100	> 100	> 100	
COc1ccc(-c2cc(-c3ccc(O)cc3O)c(C#N)c(=O)[nH]2)cc1	43.3	32.7	40.9	
C/C(CC(=O)Nc1cc(C)ccc1C)=N/N=C(N)N	> 100		> 100	TGI (DMS 273 small cell lung): > 100 µM; TGI (M19-MEL melanoma): > 100 µM; TGI (DMS 114 small cell lung): > 100 µM; TGI (XF 498 CNS): > 100 µM; TGI (KM20L2 colon): > 100 µM; TGI (SNB-78 CNS): > 100 µM; TGI (DLD-1 colon): > 100 µM; TGI (LXFL 529 NSCLC): > 100 µM
